Experiments:
[1] = biological target: T1, Angiotensin-converting enzyme (Rattus norvegicus) (UniProt P47820); experiment: Inhibition of rat lung ACE at 300 ug/ml relative to control
T1 sequence (whole entry): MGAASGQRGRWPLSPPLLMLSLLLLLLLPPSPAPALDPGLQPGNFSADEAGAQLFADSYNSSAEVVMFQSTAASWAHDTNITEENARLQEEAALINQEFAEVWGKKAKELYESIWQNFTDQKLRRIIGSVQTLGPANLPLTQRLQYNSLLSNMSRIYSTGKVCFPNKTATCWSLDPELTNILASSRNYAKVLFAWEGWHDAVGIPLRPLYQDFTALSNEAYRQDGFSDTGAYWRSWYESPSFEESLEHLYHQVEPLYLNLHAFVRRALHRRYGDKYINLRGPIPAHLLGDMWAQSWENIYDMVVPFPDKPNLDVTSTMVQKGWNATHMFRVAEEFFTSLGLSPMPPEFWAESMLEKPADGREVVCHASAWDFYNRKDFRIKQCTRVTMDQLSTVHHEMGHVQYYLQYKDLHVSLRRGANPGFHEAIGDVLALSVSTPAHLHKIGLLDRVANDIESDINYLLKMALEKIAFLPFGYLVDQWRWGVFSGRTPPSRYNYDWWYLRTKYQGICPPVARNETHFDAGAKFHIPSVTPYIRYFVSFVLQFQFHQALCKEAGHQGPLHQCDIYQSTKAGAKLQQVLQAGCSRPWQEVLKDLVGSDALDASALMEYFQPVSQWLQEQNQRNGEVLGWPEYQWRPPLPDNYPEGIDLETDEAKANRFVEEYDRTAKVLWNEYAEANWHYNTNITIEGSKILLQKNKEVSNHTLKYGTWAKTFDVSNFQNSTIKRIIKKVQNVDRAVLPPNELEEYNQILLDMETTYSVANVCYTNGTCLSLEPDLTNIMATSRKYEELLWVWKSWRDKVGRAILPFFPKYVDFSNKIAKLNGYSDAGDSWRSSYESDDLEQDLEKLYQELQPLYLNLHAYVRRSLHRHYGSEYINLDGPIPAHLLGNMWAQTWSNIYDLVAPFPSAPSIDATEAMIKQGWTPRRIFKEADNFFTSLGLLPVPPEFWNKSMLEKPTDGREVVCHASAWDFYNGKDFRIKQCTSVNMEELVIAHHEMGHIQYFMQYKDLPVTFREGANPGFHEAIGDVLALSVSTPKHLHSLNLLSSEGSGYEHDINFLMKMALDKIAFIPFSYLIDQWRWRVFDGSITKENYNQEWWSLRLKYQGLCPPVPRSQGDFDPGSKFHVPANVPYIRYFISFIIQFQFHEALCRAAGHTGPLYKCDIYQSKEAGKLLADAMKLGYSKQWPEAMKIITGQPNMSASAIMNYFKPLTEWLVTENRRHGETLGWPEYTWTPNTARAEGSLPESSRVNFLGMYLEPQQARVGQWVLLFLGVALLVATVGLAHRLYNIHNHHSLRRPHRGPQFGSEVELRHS

[2] = biological target: T1, Angiotensin-converting enzyme (Rattus norvegicus); experiment: Inhibition of rat lung ACE at 56 ug/ml relative to control
[3] = biological target: T2, Angiotensin-converting enzyme (Rattus norvegicus, UniProt P47820); experiment: Inhibition of rat lung ACE
T2 sequence (P47820 whole entry): T1 sequence (whole entry)

[4] = biological target: T1, Angiotensin-converting enzyme (Rattus norvegicus); experiment: Inhibition of rat lung ACE at 225 ug/ml relative to control
[5] = biological target: T1, Angiotensin-converting enzyme (Rattus norvegicus); experiment: Inhibition of rat lung ACE at 75 ug/ml relative to control
[6] = biological target: T1, Angiotensin-converting enzyme (Rattus norvegicus); experiment: Inhibition of rat lung ACE at 150 ug/ml relative to control
[7] = biological target: T1, Angiotensin-converting enzyme (Rattus norvegicus); experiment: Inhibition of rat lung ACE at 38 ug/ml relative to control
[8] = biological target: T1, Angiotensin-converting enzyme (Rattus norvegicus); experiment: Inhibition of rat lung ACE at 113 ug/ml relative to control

| inhibition [1] [%] | inhibition [2] [%] | IC50 [3] [µM] | inhibition [4] [%] | inhibition [5] [%] | inhibition [6] [%] | inhibition [7] [%] | inhibition [8] [%] | SMILES |
| --- | --- | --- | --- | --- | --- | --- | --- | --- |
| 53 | 6 | 466 | 39 | 15 | 35 | 3 | 35 | O=C(O[C@H]1[C@H](Oc2c(-c3ccc(O)cc3)oc3cc(O)cc(O)c3c2=O)O[C@H](CO)[C@@H](O)[C@@H]1O)c1cc(O)c(O)c(O)c1 |
| 48 | 12 | – | 34 | 18 | 39 | 10 | 39 | O=C(O[C@H]1[C@H](Oc2c(-c3ccc(O)c(O)c3)oc3cc(O)cc(O)c3c2=O)O[C@H](CO)[C@@H](O)[C@@H]1O)c1cc(O)c(O)c(O)c1 |
| – | 0 | – | 19 | 9 | 19 | 0 | 3 | O=c1c(O[C@@H]2O[C@H](CO)[C@@H](O)[C@H](O)[C@H]2O)c(-c2ccc(O)c(O)c2)oc2cc(O)cc(O)c12 |
| 67 | 2 | 401 | 28 | 22 | 53 | 0 | 31 | O=c1c(O[C@@H]2O[C@H](CO)[C@@H](O)[C@H](O)[C@H]2O)c(-c2ccc(O)cc2)oc2cc(O)cc(O)c12 [ASTRAGALIN] |
